These molecules were tested on RXF 393 (assay: NCI60 one-dose screen (10 μM), Renal Cancer). Conditions: Homo sapiens; 10 μM; RXF 393, Renal Cancer; read-out: Growth percent rate.
Format: cell-based, human

SMILES	activity at 10 µM [%]
CC[C@]12C=CCN3CC[C@@]4(c5ccc(OC)cc5N(C)[C@H]4[C@@](O)(C(=O)OC)[C@@H]1OC(=O)CCCN1CCN(Cc4ccc(F)cc4)CC1)[C@@H]32 [Compound 24]	-8.13

The molecules below were run on A498 (assay: NCI60 one-dose screen (10 μM), Renal Cancer). Conditions: Homo sapiens; 10 μM; A498, Renal Cancer; read-out: Growth percent rate.
Format: cell-based

SMILES	activity at 10 µM [%]
CC[C@]12C=CCN3CC[C@@]4(c5ccc(OC)cc5N(C)[C@H]4[C@@](O)(C(=O)OC)[C@@H]1OC(=O)CCCN1CCN(Cc4ccc(F)cc4)CC1)[C@@H]32 [Compound 24]	58.3

The molecules below were run on SK-MEL-2 (assay: NCI60 one-dose screen (10 μM), Melanoma). Conditions: Homo sapiens; 10 μM; SK-MEL-2, Melanoma; read-out: Growth percent rate.
Format: cell-based

SMILES	activity at 10 µM [%]
CC[C@]12C=CCN3CC[C@@]4(c5ccc(OC)cc5N(C)[C@H]4[C@@](O)(C(=O)OC)[C@@H]1OC(=O)CCCN1CCN(Cc4ccc(F)cc4)CC1)[C@@H]32 [Compound 24]	-26.1

What follows are molecules tested on HL-60(TB) (assay: NCI60 one-dose screen (10 μM), Leukemia). Conditions: Homo sapiens; 10 μM; HL-60(TB), Leukemia; read-out: Growth percent rate.
Format: cell-based

SMILES	activity at 10 µM [%]
CC[C@]12C=CCN3CC[C@@]4(c5ccc(OC)cc5N(C)[C@H]4[C@@](O)(C(=O)OC)[C@@H]1OC(=O)CCCN1CCN(Cc4ccc(F)cc4)CC1)[C@@H]32 [Compound 24]	7.68

What follows are molecules tested on MOLT-4 (assay: NCI60 one-dose screen (10 μM), Leukemia). Conditions: Homo sapiens; 10 μM; MOLT-4, Leukemia; read-out: Growth percent rate.
Format: cell-based, human

SMILES	activity at 10 µM [%]
CC[C@]12C=CCN3CC[C@@]4(c5ccc(OC)cc5N(C)[C@H]4[C@@](O)(C(=O)OC)[C@@H]1OC(=O)CCCN1CCN(Cc4ccc(F)cc4)CC1)[C@@H]32 [Compound 24]	6.28

What follows are molecules tested on U251 (assay: NCI60 one-dose screen (10 μM), CNS Cancer). Conditions: Homo sapiens, U-251; 10 μM; U251, CNS Cancer; read-out: Growth percent rate.
Format: cell-based

SMILES	activity at 10 µM [%]
CC[C@]12C=CCN3CC[C@@]4(c5ccc(OC)cc5N(C)[C@H]4[C@@](O)(C(=O)OC)[C@@H]1OC(=O)CCCN1CCN(Cc4ccc(F)cc4)CC1)[C@@H]32 [Compound 24]	40.3

The molecules below were run on OVCAR-8 (assay: NCI60 one-dose screen (10 μM), Ovarian Cancer). Conditions: Homo sapiens; 10 μM; OVCAR-8, Ovarian Cancer; read-out: Growth percent rate.
Format: cell-based

SMILES	activity at 10 µM [%]
CC[C@]12C=CCN3CC[C@@]4(c5ccc(OC)cc5N(C)[C@H]4[C@@](O)(C(=O)OC)[C@@H]1OC(=O)CCCN1CCN(Cc4ccc(F)cc4)CC1)[C@@H]32 [Compound 24]	66

Each molecule was assayed on NCI-H460 (assay: NCI60 one-dose screen (10 μM), Non-small Cell Lung Cancer). Conditions: Homo sapiens; 10 μM; NCI-H460, Non-small Cell Lung Cancer; read-out: Growth percent rate.
Format: cell-based

SMILES	activity at 10 µM [%]
CC[C@]12C=CCN3CC[C@@]4(c5ccc(OC)cc5N(C)[C@H]4[C@@](O)(C(=O)OC)[C@@H]1OC(=O)CCCN1CCN(Cc4ccc(F)cc4)CC1)[C@@H]32 [Compound 24]	30.6

Each molecule was assayed on MCF7 (assay: NCI60 one-dose screen (10 μM), Breast Cancer). Conditions: Homo sapiens; 10 μM; MCF7, Breast Cancer; read-out: Growth percent rate.
Format: cell-based

SMILES	activity at 10 µM [%]
CC[C@]12C=CCN3CC[C@@]4(c5ccc(OC)cc5N(C)[C@H]4[C@@](O)(C(=O)OC)[C@@H]1OC(=O)CCCN1CCN(Cc4ccc(F)cc4)CC1)[C@@H]32 [Compound 24]	6.31

The molecules below were run on K-562 (assay: NCI60 one-dose screen (10 μM), Leukemia). Conditions: Homo sapiens, K562; 10 μM; K-562, Leukemia; read-out: Growth percent rate.
Format: cell-based

SMILES	activity at 10 µM [%]
CC[C@]12C=CCN3CC[C@@]4(c5ccc(OC)cc5N(C)[C@H]4[C@@](O)(C(=O)OC)[C@@H]1OC(=O)CCCN1CCN(Cc4ccc(F)cc4)CC1)[C@@H]32 [Compound 24]	0.4

What follows are molecules tested on ACHN (assay: NCI60 one-dose screen (10 μM), Renal Cancer). Conditions: Homo sapiens, 10 μM, Renal Cancer, read-out: Growth percent rate.
Format: cell-based

SMILES	activity at 10 µM [%]
CC[C@]12C=CCN3CC[C@@]4(c5ccc(OC)cc5N(C)[C@H]4[C@@](O)(C(=O)OC)[C@@H]1OC(=O)CCCN1CCN(Cc4ccc(F)cc4)CC1)[C@@H]32 [Compound 24]	33.7

What follows are molecules tested on MALME-3M (assay: NCI60 one-dose screen (10 μM), Melanoma). Conditions: Homo sapiens; 10 μM; MALME-3M, Melanoma; read-out: Growth percent rate.
Format: cell-based

SMILES	activity at 10 µM [%]
CC[C@]12C=CCN3CC[C@@]4(c5ccc(OC)cc5N(C)[C@H]4[C@@](O)(C(=O)OC)[C@@H]1OC(=O)CCCN1CCN(Cc4ccc(F)cc4)CC1)[C@@H]32 [Compound 24]	-97.2

The molecules below were run on EKVX (assay: NCI60 one-dose screen (10 μM), Non-small Cell Lung Cancer). Conditions: Homo sapiens, 10 μM, Non-small Cell Lung Cancer, read-out: Growth percent rate.
Format: cell-based

SMILES	activity at 10 µM [%]
CC[C@]12C=CCN3CC[C@@]4(c5ccc(OC)cc5N(C)[C@H]4[C@@](O)(C(=O)OC)[C@@H]1OC(=O)CCCN1CCN(Cc4ccc(F)cc4)CC1)[C@@H]32 [Compound 24]	40.3

Each molecule was assayed on 786–0 (assay: NCI60 one-dose screen (10 μM), Renal Cancer). Conditions: Homo sapiens; 10 μM; 786-0, Renal Cancer; read-out: Growth percent rate.
Format: cell-based

SMILES	activity at 10 µM [%]
CC[C@]12C=CCN3CC[C@@]4(c5ccc(OC)cc5N(C)[C@H]4[C@@](O)(C(=O)OC)[C@@H]1OC(=O)CCCN1CCN(Cc4ccc(F)cc4)CC1)[C@@H]32 [Compound 24]	31.4

Each molecule was assayed on OVCAR-4 (assay: NCI60 one-dose screen (10 μM), Ovarian Cancer). Conditions: Homo sapiens; 10 μM; OVCAR-4, Ovarian Cancer; read-out: Growth percent rate.
Format: cell-based

SMILES	activity at 10 µM [%]
CC[C@]12C=CCN3CC[C@@]4(c5ccc(OC)cc5N(C)[C@H]4[C@@](O)(C(=O)OC)[C@@H]1OC(=O)CCCN1CCN(Cc4ccc(F)cc4)CC1)[C@@H]32 [Compound 24]	33

Each molecule was assayed on RPMI-8226 (assay: NCI60 one-dose screen (10 μM), Leukemia). Conditions: Homo sapiens; 10 μM; RPMI-8226, Leukemia; read-out: Growth percent rate.
Format: cell-based

SMILES	activity at 10 µM [%]
CC[C@]12C=CCN3CC[C@@]4(c5ccc(OC)cc5N(C)[C@H]4[C@@](O)(C(=O)OC)[C@@H]1OC(=O)CCCN1CCN(Cc4ccc(F)cc4)CC1)[C@@H]32 [Compound 24]	20.1

Each molecule was assayed on HOP-62 (assay: NCI60 one-dose screen (10 μM), Non-small Cell Lung Cancer). Conditions: Homo sapiens; 10 μM; HOP-62, Non-small Cell Lung Cancer; read-out: Growth percent rate.
Format: cell-based

SMILES	activity at 10 µM [%]
CC[C@]12C=CCN3CC[C@@]4(c5ccc(OC)cc5N(C)[C@H]4[C@@](O)(C(=O)OC)[C@@H]1OC(=O)CCCN1CCN(Cc4ccc(F)cc4)CC1)[C@@H]32 [Compound 24]	70.1

These molecules were tested on SK-MEL-28 (assay: NCI60 one-dose screen (10 μM), Melanoma). Conditions: Homo sapiens; 10 μM; SK-MEL-28, Melanoma; read-out: Growth percent rate.
Format: cell-based

SMILES	activity at 10 µM [%]
CC[C@]12C=CCN3CC[C@@]4(c5ccc(OC)cc5N(C)[C@H]4[C@@](O)(C(=O)OC)[C@@H]1OC(=O)CCCN1CCN(Cc4ccc(F)cc4)CC1)[C@@H]32 [Compound 24]	-45.3

The molecules below were run on NCI-H23 (assay: NCI60 one-dose screen (10 μM), Non-small Cell Lung Cancer). Conditions: Homo sapiens; 10 μM; NCI-H23, Non-small Cell Lung Cancer; read-out: Growth percent rate.
Format: cell-based

SMILES	activity at 10 µM [%]
CC[C@]12C=CCN3CC[C@@]4(c5ccc(OC)cc5N(C)[C@H]4[C@@](O)(C(=O)OC)[C@@H]1OC(=O)CCCN1CCN(Cc4ccc(F)cc4)CC1)[C@@H]32 [Compound 24]	74.4

The molecules below were run on 60 human tumor cell lines (NCI60) (assay: NCI60 one-dose screen (10 μM), whole panel). Conditions: 10 μM; mean over 60 human cancer cell lines; read-out: Growth percent rate, Mean.
Format: cell-based

SMILES	activity at 10 µM [%]
CC[C@]12C=CCN3CC[C@@]4(c5ccc(OC)cc5N(C)[C@H]4[C@@](O)(C(=O)OC)[C@@H]1OC(=O)CCCN1CCN(Cc4ccc(F)cc4)CC1)[C@@H]32 [Compound 24]	20.4

The molecules below were run on HCT-15 (assay: NCI60 one-dose screen (10 μM), Colon Cancer). Conditions: Homo sapiens; 10 μM; HCT-15, Colon Cancer; read-out: Growth percent rate.
Format: cell-based

SMILES	activity at 10 µM [%]
CC[C@]12C=CCN3CC[C@@]4(c5ccc(OC)cc5N(C)[C@H]4[C@@](O)(C(=O)OC)[C@@H]1OC(=O)CCCN1CCN(Cc4ccc(F)cc4)CC1)[C@@H]32 [Compound 24]	15.7

— PMC11277489, “Novel Piperazine Derivatives of Vindoline as Anticancer Agents” (International Journal of Molecular Sciences, 2024)
